Where “and” joins values, the source holds several entries; their conditions need not be identical. Equal entries are not always repeated.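 Dose response: 5 concentrations. Exposure: 48 h. Format: 96-well plates. Endpoint: linear interpolation; highest concentration if not reached. Here, GI50 denotes the concentration required for 50% inhibition of growth. TGI denotes the concentration required for complete inhibition of growth.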

The assay has as its system MDA-MB-468 breast. Kind of assay: NCI-60 cell line screen, 48 h.
Regarding `N#Cc1ccc(Oc2nccc(-c3c(-c4ccc(F)cc4)ncn3C3CCNCC3)n2)cc1`, the GI50 was 5.91 µM and the TGI is over 25 µM.

On to `CCN1CCC[C@H]1c1cc(O)c2c(c1OC)C[C@H]1C[C@H]3[C@H](N)C(=O)C(C(N)=O)=C(O)[C@@]3(O)C(=O)C1=C2O`, for which the GI50 was 0.0446 µM and the TGI was determined as 0.717 µM.

Regarding `C=CCN1C(=O)/C(=c2\sc3n(c2=O)C2C(NN=3)N(CC)C(=O)N2CC)c2ccccc21` (centres undefined), the GI50 is 0.293 µM and the TGI worked out at 3.75 µM.

Regarding `N/C(=N\O)c1ncc(-c2ccc(C(F)(F)F)cc2)c(NC2CCCCCC2)n1`, the GI50 was 8.27 µM and 3.63 µM; the TGI worked out at 17.9 µM.

For the compound `CSc1ccc2c(c1)c(CCN)c(C)n2Cc1ccc(Cl)c(Cl)c1`, the GI50 is 1.78 µM and the TGI is 3.47 µM.

As to `c1cncc(CNc2ccccc2-c2nnc(Nc3ccc4c(c3)OCO4)o2)c1`, the GI50 was 0.153 µM and the TGI is over 100 µM.

Consider `O=C1Cc2cc(CCn3ccnc3)c(Cl)cc2N1`, for which the GI50 is 2.74 µM and the TGI came out at 11.3 µM.

Take `Cc1ccc(/C=C(\C#N)n2nnc3cc(Cl)c(Cl)cc32)cc1`: the GI50 was 2.4 µM and the TGI came to 6.65 µM.

For the compound `O=C1NC(=NCc2cccs2)SC1Cc1ccc2ncccc2c1` (centres undefined), the GI50 is 11.8 µM and the TGI is over 25 µM.

For the compound `Cn1cc(-c2csc(-c3c[nH]c4ncccc34)n2)c2cc(Br)cnc21`, the GI50 was 0.812 µM and the TGI turned out to be 56.7 µM.

Turning to `Fc1ccc(-c2nc(-c3nc4ccc(Cl)cc4[nH]3)cc3c2[nH]c2ccccc23)cc1`, the GI50 was 2.43 µM and the TGI came out at 11.5 µM.

Turning to `O=C(CCCn1c2c(sc3ncccc32)c(=O)n2nnc(-c3ccccc3)c12)NCCc1cnc[nH]1`, the GI50 was 8.06 µM and the TGI was 27.4 µM.

On to `CCN1CCN(CCOc2ccc(CNc3ccc4nc(CCC5CCCCC5)[nH]c4c3)cc2)CC1`, for which the GI50 is 1.67 µM and the TGI amounted to 4.11 µM.

As for `CCNC(=O)Oc1ccc(/C(=C(/C)c2ccccc2)c2ccc(OCCN3CCCCCC3)cc2)cc1`, the GI50 was 2.06 µM and the TGI worked out at 5.63 µM.

In the case of `CCOc1ccc(Cc2nccc3cc(OCC)c(OCC)cc23)cc1OCC`, the GI50 was 2.29 µM and the TGI was 18.3 µM.

For `CCCc1cc(=O)oc2c(C(=O)CC(C)C)c(O)c(CC=C(C)C)c(O)c12`, the GI50 is 3.72 µM and the TGI is 27 µM.

For the compound `Cc1cccc(CN(C)c2ccc(CO)c(Cl)c2)c1`, the GI50 was 0.0572 µM and the TGI worked out at 0.176 µM.

In the case of `O=S(=O)(NCCNc1nccc(-c2c(-c3cccc(O)c3)nc3sccn23)n1)c1ccc(F)cc1`, the GI50 is 2.62 µM and the TGI stood at 24.2 µM.

In the case of `CN(C)CC(C(=O)c1ccccc1)c1ccccc1` (centres undefined), the GI50 was 0.95 µM and the TGI was 2.63 µM.

For the compound `CC/C(=N\Nc1nc2ccccc2n1C)c1ccccn1`, the GI50 is 0.0284 µM and the TGI amounted to 0.207 µM.

Consider `CCCCCCN(CCCCCC)CCCNc1nccc2ccccc12`, for which the GI50 was 1.34 µM and the TGI was determined as 2.91 µM.

Take `COc1cc(/C=C/C(=O)C(=Cc2ccc(F)c(F)c2)C(=O)/C=C/c2ccc(O)c(OC)c2)ccc1O`: the GI50 is 1.7 µM and the TGI was found to be 3.47 µM.

As for `COc1cc(CNC(=O)/C=C/C=C/c2ccc3c(c2)OCO3)ccc1OCc1cn(-c2ccc(Cl)c(Cl)c2)nn1`, the GI50 was 0.788 µM and the TGI came to 2.46 µM.

As for `CC(C)=CC/C=C(/C)[C@H]1CC[C@]2(C)[C@@H]1CC[C@@H]1[C@@]3(C)CCC(=O)NC(C)(C)[C@@H]3CC[C@]12C`, the GI50 was 16.5 µM and the TGI is 34.2 µM.

For `C=C1CC[C@@H]2C(C)(C)[C@@H](O)CC[C@@]2(C)[C@@H]1COc1ccc2ccc(=O)oc2c1`, the GI50 is 6.36 µM and the TGI was 25.9 µM.

In the case of `Oc1nc(NCCc2ccccc2)sc1/C=C1\C=Nc2ncccc21`, the GI50 is 1.51 µM and 2.05 µM; the TGI was 3.6 µM and 6.37 µM.

In the case of `CCCNc1nc(N(C)O)nc(N(C)O)n1`, the GI50 is 2.75 µM and the TGI was over 70.7 µM.

For the compound `CCc1nn2c(C)cc(C)nc2c1Cc1ccc(/C=C/CN2CCN(CCOCCOCCN3CCN(C/C=C/c4ccc(Cc5c(CC)nn6c(C)cc(C)nc56)cc4)CC3)CC2)cc1`, the GI50 was 1.79 µM and the TGI amounted to 3.81 µM.

In the case of `O=C(N[C@H](c1ccc(Cl)c(Cl)c1)C1CNC1)c1ccc2cnccc2c1`, the GI50 is 1.85 µM and the TGI amounted to 10.4 µM.

As to `O=C1C2=C(C(=O)c3c(O)ccc(O)c31)N(c1ccc(N3CCOCC3)nc1)Cc1ccccc1O2`, the GI50 is 0.217 µM and the TGI worked out at 0.516 µM.

On to `O=C1NC(=NCC(CO)c2ccccc2)S/C1=C\c1ccc2ncccc2c1` (centres undefined), for which the GI50 was 8.8 µM and the TGI is over 25 µM.

On to `COc1cc2c(cc1OC)C(CCc1ccc(Cl)cc1)N(C)CC2` (centres undefined), for which the GI50 was 16.3 µM and the TGI was 38.1 µM.

For `COC(=O)[C@]12CC[C@@H](C)[C@H](C)[C@@H]1C1=CC[C@@H]3[C@@]4(C)C[C@@H](OC(=O)c5ccco5)[C@H](O)[C@@](C)(CO)[C@@H]4[C@H](O)C[C@@]3(C)[C@]1(C)CC2`, the GI50 was 2.34 µM and the TGI was 6.54 µM.

With `C=C1C(=O)O[C@@H]2C[C@@H](C)/C=C\C(=O)[C@](C)(OC(C)=O)C[C@H](OC(=O)/C(C)=C\C)[C@@H]12`, the GI50 was 1.01 µM and the TGI was 5.08 µM.

`Nc1nc(N)c2cc(CNc3ccc(Cl)c(Cl)c3)ccc2n1`: the GI50 is 0.903 µM and the TGI came to 2.19 µM.

As to `O=C(Nc1cccc(Cl)c1)Nc1cccc(Cl)c1`, the GI50 is 0.0456 µM and the TGI came out at 43.6 µM.

As for `COc1ccc(CN2c3ccccc3Sc3ccccc32)cc1F`, the GI50 was 0.309 µM and the TGI came out at 53.4 µM.

The values above are taken from PubChem BioAssay (NCI).
